Data: publication PMC6912361, “Systemic Toxicity Reported for CDK8/19 Inhibitors CCT251921 and MSC2530818 Is Not Due to Target Inhibition” (Cells, 2019)
Values joined by “and” are separate entries in the source; they are usually repeats but may differ in a detail not shown here. Equal entries are not always repeated. Where two headings read alike, the source gives them in different places.

Tests used:
CDK8 [1] = target: T1, CDK8 (Homo sapiens, UniProt P49336); experiment: KdELECT Kd determination, CDK8; type: binding; design: purchased DiscoverX
Protocol: (§1) To determine dissociation constants (Kds) of compounds on different targets, an 11-point 3-fold serial dilution of each test compound was tested in independent duplicate assays.
Target sequence in this assay (P49336 whole entry): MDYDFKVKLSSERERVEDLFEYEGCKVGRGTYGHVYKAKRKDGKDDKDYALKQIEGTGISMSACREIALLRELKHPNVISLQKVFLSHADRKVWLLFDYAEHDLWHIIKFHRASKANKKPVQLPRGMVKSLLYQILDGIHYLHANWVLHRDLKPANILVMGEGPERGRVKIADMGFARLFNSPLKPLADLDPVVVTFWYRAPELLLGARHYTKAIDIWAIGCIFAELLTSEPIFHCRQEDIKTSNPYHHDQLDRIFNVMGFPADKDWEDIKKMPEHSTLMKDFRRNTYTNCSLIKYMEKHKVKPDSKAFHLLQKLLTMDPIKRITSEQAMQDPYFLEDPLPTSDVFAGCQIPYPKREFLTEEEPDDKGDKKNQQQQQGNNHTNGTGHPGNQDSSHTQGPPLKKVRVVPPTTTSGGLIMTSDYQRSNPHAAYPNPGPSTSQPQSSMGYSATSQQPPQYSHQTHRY

CDK19 [2] = target: T2, CDK19 (Homo sapiens, UniProt Q9BWU1); experiment: Cell-based QPCR assay of CDK8/19-dependent gene expression, HEK293 CDK8 single-knockout (8KO) cells; design: CDK8 single-knockout (8KO); endogenous in cells; host or cells: HEK293 CDK8 knockout (8KO); conditions: 8KO, HEK293 8KO, 1 h pre-treatment, then 10 ng/mL TNFα 2 h
Target sequence in this assay (Q9BWU1 whole entry): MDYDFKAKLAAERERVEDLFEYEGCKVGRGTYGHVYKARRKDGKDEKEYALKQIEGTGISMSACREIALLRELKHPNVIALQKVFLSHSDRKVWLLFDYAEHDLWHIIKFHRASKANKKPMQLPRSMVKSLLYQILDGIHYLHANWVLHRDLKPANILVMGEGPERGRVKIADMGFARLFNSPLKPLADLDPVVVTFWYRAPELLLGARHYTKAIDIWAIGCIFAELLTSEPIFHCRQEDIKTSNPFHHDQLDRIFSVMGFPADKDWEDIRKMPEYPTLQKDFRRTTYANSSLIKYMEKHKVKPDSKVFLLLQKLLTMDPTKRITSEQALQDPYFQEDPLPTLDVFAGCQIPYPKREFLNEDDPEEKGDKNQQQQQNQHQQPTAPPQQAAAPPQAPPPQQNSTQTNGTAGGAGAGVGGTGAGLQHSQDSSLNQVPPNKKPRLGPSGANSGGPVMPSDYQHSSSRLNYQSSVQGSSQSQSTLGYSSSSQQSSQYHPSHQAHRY
Target sequence in this assay (P24863 whole entry partner): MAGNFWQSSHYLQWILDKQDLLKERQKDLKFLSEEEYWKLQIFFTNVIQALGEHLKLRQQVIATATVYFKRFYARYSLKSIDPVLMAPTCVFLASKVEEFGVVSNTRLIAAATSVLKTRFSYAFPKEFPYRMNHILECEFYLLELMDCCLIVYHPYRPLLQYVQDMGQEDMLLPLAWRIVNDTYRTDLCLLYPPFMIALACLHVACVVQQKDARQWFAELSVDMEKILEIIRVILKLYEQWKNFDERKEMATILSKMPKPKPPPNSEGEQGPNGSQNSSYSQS
Protocol: (§5) CDK8/CDK19 single knockout and double knockout derivatives of human embryonic kidney (HEK) 293 cells (ATCC CRL-1573) were generated as previously described [18]. All cells were cultured in DMEM (high-glucose) media supplemented with 10% fetal bovine serum (FBS) and Penicillin-Streptomycin-Glutamine (1×) at 37 °C with 5% CO2 and routinely confirmed to be free of mycoplasma.
(§6) Total RNA was extracted using RNAeasy Mini Kit (Qiagen, Germantown, MD, USA) and 1 µg of total RNA was used to generate cDNA using iScript cDNA synthesis kit (Bio-Rad Laboratories, Hercules, CA, USA). Gene expression was quantified using iTaq Universal SYBR green super mix using CFX384 Real-Time System (Bio-Rad).
(§7) The IC50 values for different inhibitors in inhibiting CDK8/19-dependent gene expression were calculated using a three-parameter least square (ordinary) fitting method with GraphPad Prism 7.0 (GraphPad Software, San Diego, CA, USA). The Kruskal–Wallis non-parametric ANOVA was used to compare gene expression levels under no-inhibitor conditions between wild-type cells and knockout derivatives (8KO, 19KO and dKO) with GraphPad Prism 7.0.
(§8) Cells were pre-treated with different concentrations of CDK8/19 inhibitors for 1 h and then 10 ng/mL TNFα, an inducer of transcription factor NFκB, which is potentiated by CDK8/19 [5], was added for 2 h before RNA extraction. QPCR was carried out to quantify CDK8/19-regulated expression of NFκB-inducible genes CXCL1 and CXCL8 and the basal expression of MYC.

GSK3A = target: T3, GSK3A (Homo sapiens, UniProt P49840); experiment: KdELECT Kd determination, GSK3A; conditions: 11-point 3-fold serial dilution, duplicate; read-out: Kd for the inhibition of nucleotide binding, GSK3A
T3 construct: purchased DiscoverX
Protocol: (§2) The screening platform employs an active site-directed competition binding assay to quantitatively measure interactions between test compounds and targeting kinases. […] To determine dissociation constants (Kds) of compounds on different targets, an 11-point 3-fold serial dilution of each test compound was tested in independent duplicate assays.
(§3) This assay has been previously used with many CDK8/19 inhibitors, including cortistatin A and its equipotent analog dCA [20, 21]; 15w.

CDK19 [3] = target: T2, CDK19; experiment: KdELECT Kd determination, CDK19; type: binding; design: purchased DiscoverX
Protocol: as §1
Target sequence in this assay (Q9BWU1 whole entry): as the sequence (Q9BWU1 whole entry) above

rats = conditions: cited from earlier work
GSK3B = target: T4, GSK3B (Homo sapiens, UniProt P49841); experiment: KdELECT Kd determination, GSK3B; conditions: 11-point 3-fold serial dilution, duplicate; read-out: Kd for the inhibition of nucleotide binding, GSK3B
T4 construct: purchased DiscoverX
Protocol: as §1

dogs = conditions: cited from earlier work
[4] = tested on: dechorionated zebrafish embryos (Danio rerio, AB strain); experiment: Zebrafish toxicity assay, mechanically dechorionated embryos (AB strain); type: in vivo; conditions: 1 μM; starting after 72 hpt
Protocol: The toxicity screen using dechorionated zebrafish embryos (Danio rerio, AB strain) was performed by Arkana Laboratories, Little Rock, AR, as a service. The toxicity of different CDK8/19 inhibitors was evaluated in sterile 96-well plates with U-shaped bottoms. 12 wells (i.e., biological replicates) per test chemical and the vehicle control (0.1% DMSO) were used and the experiment was performed in triplicate. Treatment was performed via addition of 20 µL of 10× concentrations of each tested compound in 1% DMSO-containing egg water to each well containing one 24 hpf (hours post fertilization) mechanically-dechorionated embryo in 180 µL volume of egg water (i.e., 0.1% final DMSO concentration). The fish embryos cultured at 28.5 °C were examined at 24, 48, 72 and 96 h post treatment (hpt) and scored as “healthy”, “abnormal” or “dead”. Phenotypes observed and assessed as abnormal included: cardiac edema (intermediate and severe stages), overall edema, enlarged head, malformation of the eyes, curved body axis, shortened body axis and malformation of the tail. […] Positive control 3,4-dichloroaniline (3,4-DCA) was tested at 8 mg/L.

GSK3β = target: T5, GSK3β (Homo sapiens, UniProt P49841); experiment: ADP-Glo Kinase Assay, GSK3β kinase activity; type: biochemical; conditions: 25 μM ATP, 60 min, room temperature
T5 construct: purchased Promega
Protocol: Effects of different compounds on GSK3β kinase activity were evaluated using ADP-Glo^TM Kinase Assay kit and GSK3β Kinase Enzyme System (Promega, Madison, WI, USA). Kinase reactions were carried out at room temperature for 60 min. Each reaction contained 1 ng GSK3β enzyme, 25 μM ATP, 0.2 μg/μL GSK3 substrate and test compounds at different concentrations. Equal volume of ADP-Glo reagent was then added to kinase reaction and incubated at room temperature for 40 min, followed by the addition of Kinase Detection Reagent and incubation at room temperature for another 20 min. Bioluminescence signals were measured in 384-well plates using ChemiDoc Touch™ (Bio-Rad) and ImageLab software (Bio-Rad, Version 5.2.1 build 11). Effects of inhibitors were presented as relative kinase activity, calculated from […].

CDK8 [5] = target: T1, CDK8; experiment: Cell-based QPCR assay of CDK8/19-dependent gene expression, HEK293 CDK19 single-knockout (19KO) cells; design: CDK19 single-knockout (19KO); endogenous in cells; host or cells: HEK293 CDK19 knockout (19KO); conditions: HEK293 19KO, 1 h pre-treatment, then 10 ng/mL TNFα 2 h
Target sequence in this assay (P49336 whole entry): as the sequence (P49336 whole entry) above
Target sequence in this assay (P24863 whole entry partner): as the sequence (P24863 whole entry partner) above
Protocol: as §5, §6, §7, §8

CDK8/19 = experiment: Cell-based QPCR assay of CDK8/19-dependent gene expression, HEK293 parental (WT) cells; design: species or system human
Protocol: All cells were cultured in DMEM (high-glucose) media supplemented with 10% fetal bovine serum (FBS) and Penicillin-Streptomycin-Glutamine (1×) at 37 °C with 5% CO2 and routinely confirmed to be free of mycoplasma.
as §6
The IC50 values for different inhibitors in inhibiting CDK8/19-dependent gene expression were calculated using a three-parameter least square (ordinary) fitting method with GraphPad Prism 7.0 (GraphPad Software, San Diego, CA, USA).
as §8

[6] = tested on: non-dechorionated embryos of zebrafish TU strain; experiment: Zebrafish toxicity assay, non-dechorionated embryos (TU strain); type: in vivo; conditions: all the tested concentrations (0.5 μM, 1 μM and 2 μM); 3-5 days
Protocol: The toxicity studies in non-dechorionated embryos of zebrafish TU strain were approved by the Institutional Animal Care and Use Committee of the University of South Carolina. The studies were conducted in sterile 24-well plates with one 24 hpf embryo in each well in a 1 mL volume of egg water. For each plate, 6 wells were treated with vehicle control and the other 18 wells (i.e., biological replicates) were treated with different CDK8/19 inhibitors at different concentrations. […] All the data from the plates with at least five healthy vehicle-treated embryos on day 5 were compiled together for final data analysis.

[7] = design: method as in PMID 27935476; conditions: colon cancer and leukemia mouse xenograft models; cited from earlier work
[8] = tested on: STAT1 S727 phosphorylation; experiment: Basal STAT1 S727 phosphorylation in rat neurons in culture; type: cell-based; conditions: not shown
[9] = tested on: STAT1 S727 phosphorylation; design: method as in patent application US 2017/0115308A1; conditions: ref patent application US 2017/0115308A1; cited from earlier work
[10] = tested on: STAT1 S727 phosphorylation; experiment: Western blot of STAT1 S727 phosphorylation in 293-WT cells; type: cell-based, human; conditions: 1 μM
Protocol: (§4) Cells were cultured in 60-mm dishes and treated under different conditions before being lysed in RIPA lysis buffer with protease/phosphatase inhibitor cocktail. The protein concentration of extracts was determined using the DC protein assay (Bio-Rad Laboratories). Protein samples (50 μg) were resolved on 4–12% Express-Plus PAGE gels in Tris-MOPS (SDS) running buffer (GenScript, Piscataway, NJ, USA), transferred to PVDF membranes and incubated at 4 °C overnight with primary antibodies STAT1 (sc-592, Santa Cruz Biotechnology, Dallas, TX, USA) and pSTAT1-Ser727 (#8826, Cell Signaling Technology, Danvers, MA, USA) followed by anti-rabbit (NA934, GE Healthcare, Chicago, IL, USA) secondary antibodies. Bands were visualized with Western Lighting Plus ECL detection reagent (Perkin Elmer, Waltham, MA, USA) using ChemiDoc Touch™ (Bio-Rad). Images were analyzed using ImageLab (Bio-Rad) and ImageJ (version 1.52p) software for protein signal quantification.

PIKFYVE = PIKFYVE (Homo sapiens, UniProt Q9Y2I7); experiment: KdELECT Kd determination, PIKFYVE; design: purchased DiscoverX; conditions: 11-point 3-fold serial dilution, duplicate; read-out: Kd for the inhibition of nucleotide binding, PIKFYVE
Protocol: as §2, §3

[11] = tested on: STAT1 S727 phosphorylation; experiment: Western blot of STAT1 S727 phosphorylation in NIH 3T3 cells; type: cell-based, murine; conditions: 1 μM
Protocol: as §4

MAP4K2 = target: T6, MAP4K2 (Homo sapiens, UniProt Q12851); experiment: KdELECT Kd determination, MAP4K2; conditions: 11-point 3-fold serial dilution, duplicate; read-out: Kd for the inhibition of nucleotide binding, MAP4K2
T6 construct: purchased DiscoverX
T6 sequence (Q12851 1-820): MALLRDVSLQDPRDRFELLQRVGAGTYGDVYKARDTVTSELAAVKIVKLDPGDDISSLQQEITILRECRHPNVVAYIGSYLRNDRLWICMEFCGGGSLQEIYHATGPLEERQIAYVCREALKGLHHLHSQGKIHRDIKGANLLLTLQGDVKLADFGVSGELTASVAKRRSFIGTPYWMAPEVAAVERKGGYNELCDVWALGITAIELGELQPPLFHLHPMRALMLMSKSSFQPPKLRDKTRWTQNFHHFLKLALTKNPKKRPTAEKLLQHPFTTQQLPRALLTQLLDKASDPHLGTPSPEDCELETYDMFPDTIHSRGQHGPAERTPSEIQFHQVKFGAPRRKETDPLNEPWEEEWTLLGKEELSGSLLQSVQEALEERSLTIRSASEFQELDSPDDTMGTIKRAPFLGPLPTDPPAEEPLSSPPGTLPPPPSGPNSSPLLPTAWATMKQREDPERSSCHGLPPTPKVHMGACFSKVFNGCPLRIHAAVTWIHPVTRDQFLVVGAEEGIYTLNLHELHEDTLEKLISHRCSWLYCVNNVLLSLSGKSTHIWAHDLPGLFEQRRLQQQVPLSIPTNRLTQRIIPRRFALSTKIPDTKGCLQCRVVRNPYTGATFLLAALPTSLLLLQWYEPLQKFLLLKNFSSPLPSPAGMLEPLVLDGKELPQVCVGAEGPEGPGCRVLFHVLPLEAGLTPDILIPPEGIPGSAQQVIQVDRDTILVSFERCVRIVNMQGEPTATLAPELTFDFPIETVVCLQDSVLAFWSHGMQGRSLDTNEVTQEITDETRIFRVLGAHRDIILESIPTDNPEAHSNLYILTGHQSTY
Protocol: as §2, §3

STK16 = target: T7, STK16 (Homo sapiens, UniProt O75716); experiment: KdELECT Kd determination, STK16; conditions: 11-point 3-fold serial dilution, duplicate; read-out: Kd for the inhibition of nucleotide binding, STK16
T7 construct: purchased DiscoverX
Protocol: as §2, §3

JNK1 (MAPK8) = target: T8, JNK1 (MAPK8) (Homo sapiens, UniProt P45983); experiment: KdELECT Kd determination, JNK1; conditions: 11-point 3-fold serial dilution, duplicate; read-out: Kd for the inhibition of nucleotide binding, JNK1 (MAPK8)
T8 construct: purchased DiscoverX
Protocol: as §2, §3

T3 sequence (P49840 whole entry): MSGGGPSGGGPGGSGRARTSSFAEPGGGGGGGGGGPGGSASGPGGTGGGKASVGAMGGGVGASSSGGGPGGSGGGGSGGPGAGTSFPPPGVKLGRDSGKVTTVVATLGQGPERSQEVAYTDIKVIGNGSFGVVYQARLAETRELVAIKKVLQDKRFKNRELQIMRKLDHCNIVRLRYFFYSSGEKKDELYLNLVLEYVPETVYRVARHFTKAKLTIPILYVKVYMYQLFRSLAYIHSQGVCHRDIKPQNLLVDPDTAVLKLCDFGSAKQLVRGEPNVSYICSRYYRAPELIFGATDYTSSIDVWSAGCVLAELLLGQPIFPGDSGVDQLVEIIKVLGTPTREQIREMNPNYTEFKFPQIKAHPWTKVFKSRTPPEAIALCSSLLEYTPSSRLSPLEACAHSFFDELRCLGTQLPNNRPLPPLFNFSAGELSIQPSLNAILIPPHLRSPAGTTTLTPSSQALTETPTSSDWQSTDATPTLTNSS
T5 sequence (P49841 whole entry): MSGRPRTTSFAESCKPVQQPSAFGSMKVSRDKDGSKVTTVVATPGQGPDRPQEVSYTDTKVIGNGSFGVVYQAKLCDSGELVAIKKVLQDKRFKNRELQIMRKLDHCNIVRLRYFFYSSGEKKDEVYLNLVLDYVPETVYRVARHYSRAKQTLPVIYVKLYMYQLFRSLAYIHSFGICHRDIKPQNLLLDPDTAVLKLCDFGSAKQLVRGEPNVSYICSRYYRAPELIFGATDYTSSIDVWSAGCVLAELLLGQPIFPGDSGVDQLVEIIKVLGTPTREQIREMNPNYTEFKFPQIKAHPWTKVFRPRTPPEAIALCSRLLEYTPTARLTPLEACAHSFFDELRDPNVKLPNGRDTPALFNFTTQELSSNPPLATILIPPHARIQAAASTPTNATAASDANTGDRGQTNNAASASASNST
T7 sequence (O75716 whole entry): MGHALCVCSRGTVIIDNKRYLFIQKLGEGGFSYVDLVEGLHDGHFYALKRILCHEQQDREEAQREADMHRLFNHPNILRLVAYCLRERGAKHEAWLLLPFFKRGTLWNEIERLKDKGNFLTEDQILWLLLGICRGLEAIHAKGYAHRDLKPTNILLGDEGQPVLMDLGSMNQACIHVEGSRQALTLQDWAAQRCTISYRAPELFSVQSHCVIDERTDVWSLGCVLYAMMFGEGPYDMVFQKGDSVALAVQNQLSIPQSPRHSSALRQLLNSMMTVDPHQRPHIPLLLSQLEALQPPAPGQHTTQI
T4 sequence (P49841 whole entry): as the sequence (P49841 whole entry) above
T8 sequence (P45983 whole entry): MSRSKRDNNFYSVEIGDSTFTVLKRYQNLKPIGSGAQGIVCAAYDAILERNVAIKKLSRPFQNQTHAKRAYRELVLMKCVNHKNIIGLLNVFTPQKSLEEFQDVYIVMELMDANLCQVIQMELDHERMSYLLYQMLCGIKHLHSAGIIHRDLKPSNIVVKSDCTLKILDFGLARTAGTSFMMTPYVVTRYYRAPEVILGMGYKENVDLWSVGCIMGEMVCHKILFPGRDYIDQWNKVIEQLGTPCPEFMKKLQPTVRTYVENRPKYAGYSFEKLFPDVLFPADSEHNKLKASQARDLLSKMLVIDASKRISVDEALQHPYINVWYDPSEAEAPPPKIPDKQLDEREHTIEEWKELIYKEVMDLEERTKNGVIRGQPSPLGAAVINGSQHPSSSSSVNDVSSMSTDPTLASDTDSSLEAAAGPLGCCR

Cc1n[nH]c2ncc(C(=O)N3CCC[C@H]3c3ccc(Cl)cc3)cc12 [Cmpd4]
Kd (CDK8 [1]): 115 nM
IC50 (CDK19 [2]; IC50, CXCL1 mRNA expression): 2.4 nM
IC50 (CDK19 [2]; IC50, CXCL8 mRNA expression): 1.9 nM
IC50 (CDK19 [2]; IC50, MYC mRNA expression): 1.4 nM
Kd (GSK3A): 450 nM
Kd (CDK19 [3]): 94 nM
Toxicity in rats (rats): multiple and striking toxicities, including lethality
Kd (GSK3B): 190 nM
Toxicity in dogs (dogs): multiple and striking toxicities, including lethality
Toxicity in dechorionated AB zebrafish larvae [4]: severe toxicity
IC50 (GSK3β): ~400 nM and 396 nM
IC50 (CDK8 [5]; IC50, CXCL1 mRNA expression, 19KO): 3.2 nM
IC50 (CDK8 [5]; IC50, CXCL8 mRNA expression, 19KO): 3.1 nM
IC50 (CDK8 [5]; IC50, MYC mRNA expression, 19KO): 1.9 nM
IC50 (CDK8/19; read-out: IC50, CXCL1 mRNA expression, WT; HEK293 WT; 1 h pre-treatment, then 10 ng/mL TNFα 2 h; QPCR): 1.8 nM
IC50 (CDK8/19; read-out: IC50, CXCL8 mRNA expression, WT; HEK293 WT; 1 h pre-treatment, then 10 ng/mL TNFα 2 h; QPCR): 2.1 nM
IC50 (CDK8/19; read-out: IC50, MYC mRNA expression, WT; HEK293 WT; 1 h pre-treatment, then 10 ng/mL TNFα 2 h; QPCR): 2.4 nM
Toxicity in TU strain zebrafish embryos [6]: very strong toxicity
Weight loss in mice [7]: detectable weight loss

CN1CCN(C(=O)c2ccc3cc(CCNc4ncnc5ccc(C#N)cc45)ccc3c2)CC1 [Senexin B]
Kd (CDK8 [1]; 11-point 3-fold serial dilution, duplicate, read-out: Kd for the inhibition of nucleotide binding, CDK8): 59 nM
Effect on basal STAT1 S727 phosphorylation in rat neurons in culture [8]: did not detect any effect
Effect on basal STAT1 S727 phosphorylation in all the tested tumor cell lines [9]: inhibited
Kd (GSK3A): > 30000 nM
Effect on STAT1 S727 phosphorylation, WT 293 cells under standard conditions and serum-starved [10]: inhibits STAT1 S727 phosphorylation
Effect on serum-stimulated increase of STAT1 S727 phosphorylation, WT 293 cells ([10]; serum stimulation 1 h): only weakly affected
Kd (PIKFYVE): 14000 nM
Effect on STAT1 S727 phosphorylation, serum-starved NIH 3T3 cells ([11]; serum starvation 24 h): inhibits STAT1 S727 phosphorylation
Effect on STAT1 S727 phosphorylation, NIH 3T3 cells after addition of serum ([11]; serum stimulation 1 h): only a minor effect
Kd (MAP4K2): 570 nM
Kd (STK16): 2200 nM
Kd (JNK1 (MAPK8)): 7200 nM
IC50 (CDK8 [5]; read-out: IC50, CXCL1 mRNA expression, 19KO): 70 nM
IC50 (CDK8 [5]; read-out: IC50, CXCL8 mRNA expression, 19KO): 71 nM
IC50 (CDK8 [5]; read-out: IC50, MYC mRNA expression, 19KO): 51 nM
Activity in the cell-based assay (WT, 8KO and 19KO cells) (CDK8/19): an order of magnitude less active
IC50 (CDK8/19; HEK293 WT; 1 h pre-treatment, then 10 ng/mL TNFα 2 h; QPCR; read-out: IC50, CXCL1 mRNA expression, WT): 68 nM
IC50 (CDK8/19; HEK293 WT; 1 h pre-treatment, then 10 ng/mL TNFα 2 h; QPCR; read-out: IC50, CXCL8 mRNA expression, WT): 81 nM
IC50 (CDK8/19; HEK293 WT; 1 h pre-treatment, then 10 ng/mL TNFα 2 h; QPCR; read-out: IC50, MYC mRNA expression, WT): 45 nM
